Molecular target: T1, STING (Homo sapiens, UniProt Q86WV6, G230A/H232R/R293Q/R71H)
T1 construct: host or cells: THP1-Dual cells (human THP-1 monocyte line with Lucia/SEAP reporters)
Experiment: Reporter gene expression assay in THP1-Dual cells (IRF pathway Lucia luciferase, 2',3'-cGAMP stimulation)
Type: cell-based
Conditions: 10 min preincubation, 5 μM 2',3'-cGAMP, 20 hr, IRF reporter QUANTI-Luc, read-out: THP-1 (HAQ) Activity
Procedure, shortened: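 THP1-Dual cells preincubated 10 min with compound, then stimulated with 5 μM 2′,3′-cGAMP for 20 hr. Secreted Lucia luciferase (IRF reporter) measured in supernatant by luminescence; IC50 reported as ranges (A ≤1 μM, B >1–≤10 μM, C >10 μM).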

T1 sequence (Q86WV6 whole entry R71H/G230A/H232R/R293Q): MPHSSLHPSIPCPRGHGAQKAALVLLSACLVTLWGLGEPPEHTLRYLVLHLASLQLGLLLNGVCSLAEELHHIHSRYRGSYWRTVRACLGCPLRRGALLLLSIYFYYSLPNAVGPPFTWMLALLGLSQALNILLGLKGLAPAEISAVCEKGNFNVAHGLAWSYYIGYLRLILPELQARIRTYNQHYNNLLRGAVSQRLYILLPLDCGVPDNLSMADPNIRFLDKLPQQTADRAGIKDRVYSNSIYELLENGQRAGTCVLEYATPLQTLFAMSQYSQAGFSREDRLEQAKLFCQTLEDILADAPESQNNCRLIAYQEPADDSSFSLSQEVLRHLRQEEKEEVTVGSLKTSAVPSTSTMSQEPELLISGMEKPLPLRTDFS

Row | Compound | IC50 [µM]
1 | O=C(Nc1ccc2c(c1)N(c1ccccc1)C(=O)CO2)Nc1ccc2cc[nH]c2c1 [Example 183, 1-(1H-indol-6-yl)-3-(3-oxo-4-phenyl-3,4-dihydro-2H-benzo[b][1,4]oxazin-6-yl)urea] | > 10
2 | O=C(Nc1ccc2c(c1)N(c1ccccc1)CCO2)Nc1ccc2cc[nH]c2c1 [Example 184, 1-(1H-indol-6-yl)-3-(4-phenyl-3,4-dihydro-2H-benzo[b][1,4]oxazin-6-yl)urea] | 1 to 10
3 | N#CC1COc2cc(NC(=O)Nc3ccc4cc[nH]c4c3)ccc2N1Cc1ccccc1 (stereo not drawn) [Example 186, 1-(4-benzyl-3-cyano-3,4-dihydro-2H-benzo[b][1,4]oxazin-7-yl)-3-(1H-indol-6-yl)urea] | 1 to 10
4 | NCC1COc2cc(NC(=O)Nc3ccc4cc[nH]c4c3)ccc2N1Cc1ccccc1 (stereo not drawn) [Example 187, 1-(3-(aminomethyl)-4-benzyl-3,4-dihydro-2H-benzo[b][1,4]oxazin-7-yl)-3-(1H-indol-6-yl)urea] | 1 to 10
5 | NC(=O)C1COc2cc(NC(=O)Nc3ccc4cc[nH]c4c3)ccc2N1Cc1ccccc1 (stereo not drawn) [Example 188, 7-(3-(1H-indol-6-yl)ureido)-4-benzyl-3,4-dihydro-2H-benzo[b][1,4]oxazine-3-carboxamide] | 1 to 10
6 | CNC(=O)C(c1ccccc1)N1CCOc2ccc(NC(=O)Nc3ccc4cc[nH]c4c3)cc21 (stereo not drawn) [Example 189, 2-(6-(3-(1H-indol-6-yl)ureido)-2,3-dihydro-4H-benzo[b][1,4]oxazin-4-yl)-N-methyl-2-phenylacetamide] | 1 to 10
7 | O=C(Nc1ccc2c(c1)N(C(C(=O)NC1CC1)c1ccccc1)CCO2)Nc1ccc2cc[nH]c2c1 (stereo not drawn) [Example 190, 2-(6-(3-(1H-indol-6-yl)ureido)-2,3-dihydro-4H-benzo[b][1,4]oxazin-4-yl)-N-cyclopropyl-2-phenylacetamide] | 1 to 10
8 | O=C1CSc2ccc(N3CCN(c4ccc5cc[nH]c5c4)CC3)cc2N1Cc1ccccc1 [Example 191, 6-(4-(1H-Indol-6-yl)piperazin-1-yl)-4-benzyl-2H-benzo[b][1,4]thiazin-3(4H)-one] | 1 to 10
9 | N#C/N=C(\Nc1ccc2c(c1)N(Cc1ccccc1)C(=O)CS2)Nc1ccc2cc[nH]c2c1 [Example 192] | > 10
10 | CN1C(=O)CSc2ccc(NC(=O)Nc3ccc(F)cc3)cc21 [Example 193, l-(4-fluorophenyl)-3-(4-methyl-3-oxo-3,4-dihydro-2H-benzo[b][1, 4]thiazin-6-yl)urea] | > 10
11 | Nc1ncc2c(n1)CCN(C(=O)Nc1ccc3c(c1)N(Cc1ccccc1)C(=O)CS3)C2 [Example 194, 2-amino-N-(4-benzyl-3-oxo-3,4-dihydro-2H-benzo[b][1, 4]thiazin-6-yl)-7,8-dihydropyrido [4,3-d] pyrimidine-6(5H)-carboxamide] | > 10
12 | O=C1CSc2ccc(NC(=O)Nc3ccc4cc[nH]c4c3)cc2N1 [Example 195, 1-(1H-indol-6-yl)-3-(3-oxo-3,4-dihydro-2H-benzo[b][1, 4]thiazin-6-yl)urea] | > 10

The remaining lines, values ahead:

Row | IC50 [µM] | Compound
13 | 1 to 10 | O=C(Nc1ccc2c(c1)N(Cc1ccccc1)CCO2)Nc1ccc2cc[nH]c2n1 [Example 172, 1-(4-benzyl-3,4-dihydro-2H-benzo[b][1, 4]oxazin-6-yl)-3-(1H-pyrrolo[2,3-b]pyridin-6-yl)urea]
14 | 1 to 10 | O=C(Nc1ccc(F)cc1)Nc1ccc2c(c1)N(Cc1ccccc1)CCS2 [Example 173, 1-(4-benzyl-3,4-dihydro-2H-benzo[b][1, 4]thiazin-6-yl)-3-(4-fluorophenyl) urea]
15 | ≤ 1 | O=C(Nc1ccc2c(c1)N(Cc1ccc(OC(F)(F)F)cc1F)CCO2)Nc1ccc2cc[nH]c2c1 [Example 174, 1-(4-(2-fluoro-4-(trifluoro-methoxy)benzyl)-3,4-dihydro-2H-benzo[b][1, 4]oxazin-6-yl)-3-(1H-indol-6-yl)urea]
16 | 1 to 10 | O=S(=O)(Nc1ccc2c(c1)OCCN2c1ccccc1)Nc1ccc2cc[nH]c2c1 [Example 175, N-1H-indol-6-yl-N′-(4-phenyl-3,4-dihydro-2H-1,4-benzoxazin-7-yl)sulfuric diamide]
17 | 1 to 10 | O=S(=O)(Nc1ccc2c(c1)N(Cc1ccccc1)CCO2)Nc1ccc2cc[nH]c2c1 [Example 176, 4-Benzyl-N-(1H-indol-6-ylsulfamoyl)-2,3-dihydro-1,4-benzoxazin-6-amine]
18 | 1 to 10 | O=C(Nc1ccc2c(c1)N(Cc1ccccc1)CCO2)Nc1cnc2cc[nH]c2c1 [Example 177, 1-(4-benzyl-3,4-dihydro-2H-benzo[b][1, 4]oxazin-6-yl)-3-(1H-pyrrolo[3,2-b]pyridin-6-yl)urea]
19 | 1 to 10 | CN(C(=O)Nc1ccc2cc[nH]c2c1)c1ccc2c(c1)N(Cc1ccccc1)CCO2 [Example 178, 1-(4-benzyl-3,4-dihydro-2H-benzo[b][1, 4]oxazin-6-yl)-3-(1H-indol-6-yl)-1-methylurea]
20 | 1 to 10 | NC(=O)c1cc2c(cc1NC(=O)Nc1ccc3cc[nH]c3c1)N(Cc1ccccc1)CCO2 [Example 179, 6-(3-(1H-indol-6-yl)ureido)-4-benzyl-3,4-dihydro-2H-benzo[b][1, 4]oxazine-7-carboxamide]
21 | 1 to 10 | O=C(Nc1ccc2cc[nH]c2c1)Nc1cc2c(cc1Br)OCCN2Cc1ccccc1 [Example 180, 1-(4-benzyl-7-bromo-3,4-dihydro-2H-benzo[b][1, 4]oxazin-6-yl)-3-(1H-indol-6-yl)urea]
22 | ≤ 1 | O=C(Nc1ccc2c(c1)OCCN2c1ccccc1)Nc1ccc2cc[nH]c2c1 [Example 181, 1-(1H-indol-6-yl)-3-(4-phenyl-3,4-dihydro-2H-benzo[b][1,4]oxazin-7-yl)urea]
23 | ≤ 1 | O=C(Nc1ccc2c(c1)SCCN2c1ccccc1)Nc1ccc2cc[nH]c2c1 [Example 182, 1-(1H-indol-6-yl)-3-(4-phenyl-3,4-dihydro-2H-benzo[b][1,4]thiazin-7-yl)urea]
24 | ≤ 1 | O=C(Nc1ccc2c(c1)OCCN2c1ncco1)Nc1ccc2cc[nH]c2c1 [Example 185, 1-(1H-indol-6-yl)-3-(4-(oxazol-2-yl)-3,4-dihydro-2H-benzo[b][1,4]oxazin-7-yl)urea]

— patent US20230124361A1, “SMALL MOLECULE STING ANTAGONISTS” (CURADEV PHARMA PVT. LTD., priority 2020, published 2023)
